Data reported in patent US20050074879A1, “Antisense oligonucleotide modulation of STAT3 expression” (priority 2000, published 2005).
Oligonucleotides are written 5' to 3', each unit as a sugar letter and its base; * is a phosphorothioate linkage, no mark a phosphodiester; rarer units and linkages stand in square brackets, end groups in braces. Plain capitals give the bases only. e = 2'-O-(2-methoxyethyl) (MOE); [5mC] = 5-methylcytosine; d = 2'-deoxy (DNA)

Tests used:
Assay type in all cases: cell-based
[1] = system: Human STAT3 mRNA; assay: Human STAT3 mRNA dose response in T-24 cells, real-time PCR with PPS 2033 (Table 19); conditions: 16 hours, − decrease, + increase relative to untreated control
Method: The dose-response was repeated in T-24 cells and gene target quantities were measured using a different primer-probe set, called PPS 2033 herein. PPS 2033 comprises probes and primers to human STAT3 were designed to hybridize to a human STAT3 sequence, using published sequence information (incorporated herein as SEQ ID NO: XXX). For PPS 2033 the PCR primers were: forward primer: GAGGCCCGCCCAACA (SEQ ID NO: 397) reverse primer: […] (SEQ ID NO: 398) and the PCR probe was: FAM-CTGCCTAGATCGGC-TAMRA (SEQ ID NO: 399) where FAM is the fluorescent reporter dye and TAMRA is the quencher dye. Gene target quantities obtained by real time RT-PCR are normalized by quantifying total RNA using RiboGreen™ (Molecular Probes, Inc. Eugene, Oreg.). Control oligonucleotides used were ISIS 129695 (SEQ ID NO: 391), ISIS 129694 (SEQ ID NO: 392), ISIS 129690 (SEQ ID NO: 393), ISIS 129686 (SEQ ID NO: 394), ISIS 116847 (SEQ ID NO: 395) and ISIS 113529 (SEQ ID NO: 396).
(§1) T-24 cells were treated with 18.75, 37.5, 75, or 150 nM of oligonucleotide mixed with 3 ug/mL LIPOFECTIN per 100 nM oligonucleotide as described by other examples herein. Untreated cells served as controls. Following 16 hours of treatment, RNA was prepared from cells for subsequent real-time PCR analysis.
Human STAT3 mRNA expression levels were quantitated by real-time PCR using primer probe set PPS 2033 and gene target quantities were normalized using Ribogreen as described in other examples herein. A “−” or “+” designation indicates a decrease or increase of STAT 3 mRNA expression, respectively, relative to untreated control cells.

[2] = system: Human STAT3 mRNA; assay: Human STAT3 mRNA dose response in T-24 cells, real-time PCR with PPS 199 (Table 18); conditions: 16 hours, − decrease, + increase relative to untreated control
Excerpt: The transitional cell bladder carcinoma cell line T-24 was obtained from the American Type Culture Collection (ATCC) (Manassas, Va.). T-24 cells were routinely cultured in complete McCoy's 5A basal media (Gibco/Life Technologies, Gaithersburg, Md.) supplemented with 10% fetal calf serum (Gibco/Life Technologies, Gaithersburg, Md.), penicillin 100 units per mL, and streptomycin 100 micrograms per mL (Gibco/Life Technologies, Gaithersburg, Md.). Cells were routinely passaged by trypsinization and dilution when they reached 90% confluence. Cells were seeded into 96-well plates (Falcon-Primaria #3872) at a density of 7000 cells/well for use in RT-PCR analysis.
Control oligonucleotides used were ISIS 129695 ([…], SEQ ID NO: 391), ISIS 129694 ([…] SEQ ID NO: 392), ISIS 129690 ([…] SEQ ID NO: 393), ISIS 129686 ([…] SEQ ID NO: 394), ISIS 116847 ([…], SEQ ID NO: 395) and ISIS 113529 ([…] SEQ ID NO: 396). These are universal scrambled control oligonucleotides.
as §1
Human STAT3 mRNA expression levels were quantitated by real-time PCR using primer probe set PPS 199 and gene target quantities were normalized using Ribogreen as described in other examples herein. A “−” or “+” designation indicates a decrease or increase of STAT 3 mRNA expression, respectively, relative to untreated control cells.

[3] = system: Human STAT3 mRNA; assay: Inhibition of human STAT3 mRNA levels in A549 cells, 75 nM, real-time PCR (Table 13); conditions: 75 nM oligonucleotide with LIPOFECTIN, real-time PCR PPS 199, percent inhibition relative to untreated control cells, average of 2 experiments
How it was run: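 A549 cells at 65–75% confluency were transfected in duplicate with 75 nM oligonucleotide plus […] Lipofectin for 4–7 h at 37° C and harvested 16–24 h later. STAT3 mRNA was quantified by real-time RT-PCR with primer-probe set PPS 199 and normalized to RiboGreen total RNA. Inhibition is relative to untreated controls.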

| Substance | Percent change of STAT3 expression using PPS 2033 ([1]; 18.75 nM oligonucleotide) | Percent change of STAT3 expression using PPS 2033 ([1]; 37.5 nM oligonucleotide) | Percent change of STAT3 expression using PPS 2033 ([1]; 75 nM oligonucleotide) | Percent change of STAT3 expression using PPS 2033 ([1]; 150 nM oligonucleotide) | Percent change of STAT3 expression using PPS 199 ([2]; 18.75 nM oligonucleotide) | Percent change of STAT3 expression using PPS 199 ([2]; 37.5 nM oligonucleotide) | Percent change of STAT3 expression using PPS 199 ([2]; 75 nM oligonucleotide) | Percent change of STAT3 expression using PPS 199 ([2]; 150 nM oligonucleotide) | % Inhib (inhibition of human STAT 3 mRNA levels) [3] |
| --- | --- | --- | --- | --- | --- | --- | --- | --- | --- |
| 106747 (GCCCATGATGATTTCAGCAA; all C 5-methyl, all phosphorothioate, sugars by position not given here; further chemistry not fully specified) [compound 106747] | −32% | −48% | −62% | −76% | −37% | −48% | −71% | −84% | – |
| 113529 (antisense CTCTTACTGTGCTGTGGACA; all phosphorothioate, sugars by position and methylation of C not given here; 2'-MOE wings and deoxy gap) [compound 113529] | +1% | +12% | −11% | −24% | +1% | −1% | −11% | −26% | – |
| 116847 (antisense CTGCTAGCCTCTGGATTTGA; all phosphorothioate, sugars by position and methylation of C not given here; 2'-MOE wings and deoxy gap) [compound 116847] | +45% | +33% | +22% | −2% | +7% | +4% | +8% | +5% | – |
| 129694 (antisense GTACAGTTATGCGCGGTAGA; all phosphorothioate, sugars by position and methylation of C not given here; 2'-MOE wings with deoxy gap) [compound 129694] | +19% | −1% | +7% | +2% | +4% | −3% | −4% | −10% | – |
| 129695 (antisense TTCTACCTCGCGCGATTTAC; all phosphorothioate, sugars by position and methylation of C not given here; 2'-MOE wings with deoxy gap) [compound 129695] | −4% | +2% | +8% | +3% | +5% | +2% | +8% | 0% | – |
| 337247 (antisense eT*eT*eT*eT*eG*d[5mC]*dA*dT*dG*dA*dT*dG*dT*dA*dA*e[5mC]*e[5mC]*eA*e[5mC]*eT) [compound 337247] | +17% | −21% | −53% | −69% | −23% | −43% | −62% | −75% | 87% |
